Measured values from patent US6737383B1, “Herbicidal oxadiazolidines” (priority 1999, dated 2004).

Columns and labels:
[1] = system: rape; test: Test B pre/postemergence rape; type: in vivo, Brassica napus; conditions: Preemergence
Excerpt: (§1) Seeds of bedstraw (Galium aparine), blackgrass (Alopecurus myosuroides), surinam grass (Brachiaria decumbens), cocklebur (Xanthium strumarium), corn (Zea mays), crabgrass (Digitaria sanguinalis), giant foxtail (Setaria faberii), morningglory (Ipomoea hederacea), pigweed (Amaranthus retroflexus), rape (Brassica napus), soybean (Glycine max), sugar beet (Beta vulgaris), velvetleaf (Abutilon theophrasti), wheat (Triticum aestivum), wild oat (Avena fatua) and purple nutsedge (Cyperus rotundus) tubers were planted and treated preemnergence with test chemicals formulated in a non-phytotoxic solvent mixture which included a surfactant.
(§2) At the same time, these crop and weed species were also treated with postemergence applications of test chemicals formulated in the same manner. Plants ranged in height from 2 to 18 cm (1- to 4-leaf stage) for postemergence treatments. Plant species in the flood test consisted of rice (Oryza sativa), smallflower flatsedge (Cyperus difformis), duck salad (Heteranthera limosa) and bamyardgrass (Echinochloa crus-galli) grown to the 2-leaf stage for testing. Treated plants and controls were maintained in a greenhouse for twelve to sixteen days, after which all species were compared to controls and visually evaluated. Plant response ratings, summarized in Table B, are based on a scale of 0 to 10 where 0 is no effect and 10 is complete control. A dash (−) response means no test result.

[2] = system: giant foxtail; test: Test B pre/postemergence giant foxtail; type: in vivo, Setaria faberii; conditions: Preemergence
Excerpt: as §1, §2

[3] = system: crabgrass; test: Test B pre/postemergence crabgrass; type: in vivo, Digitaria sanguinalis; conditions: Preemergence
Excerpt: as §1, §2

[4] = system: surinam grass; test: Test B pre/postemergence surinam grass; type: in vivo, Brachiaria decumbens; conditions: Preemergence
Excerpt: as §1, §2

[5] = system: velvetleaf; test: Test B pre/postemergence velvetleaf; type: in vivo, Abutilon theophrasti; conditions: Preemergence
Excerpt: as §1, §2

[6] = system: pigweed; test: Test B pre/postemergence pigweed; type: in vivo, Amaranthus retroflexus; conditions: Preemergence
Excerpt: as §1, §2

[7] = system: blackgrass; test: Test B pre/postemergence blackgrass; type: in vivo, Alopecurus myosuroides; conditions: Preemergence
Excerpt: as §1, §2

[8] = system: soybean; test: Test B pre/postemergence soybean; type: in vivo, Glycine max; conditions: Preemergence
Excerpt: as §1, §2

[9] = system: morningglory; test: Test B pre/postemergence morningglory; type: in vivo, Ipomoea hederacea; conditions: Preemergence
Excerpt: as §1, §2

[10] = system: wheat; test: Test B pre/postemergence wheat; type: in vivo, Triticum aestivum; conditions: Preemergence
Excerpt: as §1, §2

[11] = system: sugar beet; test: Test B pre/postemergence sugar beet; type: in vivo, Beta vulgaris; conditions: Preemergence
Excerpt: as §1, §2

[12] = system: corn; test: Test B pre/postemergence corn; type: in vivo, Zea mays; conditions: Preemergence
Excerpt: as §1, §2

[13] = system: wild oat; test: Test B pre/postemergence wild oat; type: in vivo, Avena fatua; conditions: Preemergence
Excerpt: as §1, §2

[14] = system: bedstraw; test: Test B pre/postemergence bedstraw; type: in vivo, Galium aparine; conditions: Preemergence
Excerpt: as §1, §2

[15] = system: purple nutsedge; test: Test B pre/postemergence purple nutsedge; type: in vivo, Cyperus rotundus; conditions: Preemergence, Rate 125 g/ha; scale of 0 to 10 where 0 is no effect and 10 is complete control
Excerpt: as §1, §2

[16] = system: cocklebur; test: Test B pre/postemergence cocklebur; type: in vivo, Xanthium strumarium; conditions: Preemergence
Excerpt: as §1, §2

[17] = Rate 125 g/ha, scale of 0 to 10 where 0 is no effect and 10 is complete control
[18] = Rate 1000 g/ha, scale 0 to 10 (0 no effect, 10 complete control)
[19] = Rate 250 g/ha, scale 0 to 10 (0 no effect, 10 complete control)
[20] = Rate 500 g/ha, scale of 0 to 10 where 0 is no effect and 10 is complete control

Q: What does the source list for COP(=O)(CCn1c(=O)on(C(=O)N(c2ccc(Cl)cc2)C(C)C)c1=O)OC [Compound 698]?
A: Plant response rating, Rape [1, 17]: 0; Plant response rating, Rape [1, 18]: 8; Plant response rating, Giant foxtail [2, 17]: 0; Plant response rating, Giant foxtail [2, 18]: 10; Plant response rating, Crabgrass [3, 17]: 3; Plant response rating, Crabgrass [3, 19]: 8; Plant response rating, Crabgrass [3, 18]: 9; Plant response rating, B. signalgrass [4, 17]: 0; Plant response rating, B. signalgrass [4, 19]: 3; Plant response rating, B. signalgrass [4, 20]: 5; Plant response rating, B. signalgrass [4, 18]: 4; Plant response rating, Velvetleaf [5, 17]: 0; Plant response rating, Velvetleaf [5, 18]: 0; Plant response rating, Redroot pigweed [6, 17]: 0; Plant response rating, Redroot pigweed [6, 18]: 0; Plant response rating, Blackgrass [7, 17]: 0; Plant response rating, Blackgrass [7, 19]: 2; Plant response rating, Blackgrass [7, 20]: 8; Plant response rating, Blackgrass [7, 18]: 9; Plant response rating, Soybean [8, 17]: 0; Plant response rating, Soybean [8, 18]: 3; Plant response rating, Morningglory [9, 17]: 0; Plant response rating, Morningglory [9, 18]: 0; Plant response rating, Wheat [10, 17]: 0; Plant response rating, Wheat [10, 18]: 6; Plant response rating, Sugarbeets [11, 17]: 0; Plant response rating, Sugarbeets [11, 18]: 0; Plant response rating, Corn [12, 17]: 0; Plant response rating, Corn [12, 19]: 0; Plant response rating, Corn [12, 18]: 0; Plant response rating, Wild oats [13, 17]: 0; Plant response rating, Wild oats [13, 18]: 10; Plant response rating, Bedstraw [14, 17]: 0; Plant response rating, Bedstraw [14, 19]: 0; Plant response rating, Bedstraw [14, 20]: 0; Plant response rating, Bedstraw [14, 18]: 0; Plant response rating, Nutsedge [15]: 0; Plant response rating, Cocklebur [16, 17]: 0; Plant response rating, Cocklebur [16, 19]: 0; Plant response rating, Cocklebur [16, 20]: 0; Plant response rating, Cocklebur [16, 18]: 0
